Data: patent US20020061888A1, “Combination therapy for the prophylaxis and treatment of hyperlipidemic conditions and disorders” (priority 2000, published 2002)
Several values for one entry are separate records, joined by “and”; a condition that tells them apart may be missing. Equal values may be shown once. Marks after values point to notes of the source that are not given here.

Tested on: Male beagle dogs
Experiment: Serum total cholesterol in beagle dogs (serum lipid measurements)
Type: in vivo
Conditions: for SERUM TOTAL CHOLESTEROL / TOTAL SERUM CHOLESTEROL: n = 6; for decrease in serum total cholesterol concentration: compared to vehicle
Experimental: Male beagle dogs (9-10 kg) obtained from Marshall farms were fed a normal chow diet once a day for a two hour interval and given water ad libitum. Prior to initiating treatment, the dogs were weighed and blood samples were drawn from the cephalic vein of each dog following an overnight fast to evaluate pretreatment serum total cholesterol levels at the start of the study. […] All doses were administered in gelatin capsules per os to each dog between 9:00-9:30 a.m. prior to feeding. All animals were fed between 9:30-10:00 a.m. and were allowed two hours to eat, at which time any remaining food was removed. […] Animals were dosed daily for three weeks and blood samples were taken at the end of each week after an overnight fast for comparison with pretreatment serum total cholesterol levels. Three consecutive 24 hour fecal samples were collected for each group during the last 72 hours of each week and used to measure the concentration of fecal biles acids excreted during that time period.
Blood was collected from the cephalic vein of each dog into serum separator tubes. The blood was centrifuged at 900×g for 20 minutes at room temperature and the serum decanted. All analyses were performed on a Cobas Mira Clinical Analyzer System (Roche Diagnostic Systems, Branchburg, N.J.) using Roche Diagnostic reagents for enzymatic determinations of serum cholesterol. Commercial calibrator and quality control materials were analyzed with each run to verify assay accuracy and precision. A two-tailed, paired Students t-test was used to determine the statistical significance of changes in serum total cholesterol in treated dogs compared to pretreatment values. A one-way analysis of variance (“ANOVA”) was used to compare each pair of treatment groups to determine the statistical significance of changes in serum total cholesterol.
Beagle dogs also were administered pravastatin to evaluate the monotherapeutic effect of pravastatin on serum total cholesterol.
Male beagle dogs (9-10 kg) obtained from Marshall farms were fed once a day for two hours and given water ad libitum. Prior to initiating treatment, blood samples were drawn from the cephalic vein of each dog to evaluate pretreatment total serum cholesterol levels at the start of the study.
For the dose ranging study, the dogs were assigned to one of five groups based on mean body weights and serum total cholesterol levels. Each group received one of the following dosages: (1) vehicle (empty capsule, afternoon dosing), (2) 3.0 mg/kg/day pravastatin (afternoon dosing), (3) 10 mg/kg/day pravastatin (afternoon dosing), (4) 30 mg/kg/day pravastatin (afternoon dosing), and (5) 10 mg/kg/day pravastatin (morning dosing). One capsule containing pravastatin was administered per os to each dog between 9:00-9:30 a.m. prior to feeding for the 10 mg/kg/day morning dosing group and between 2:30-3:00 p.m. for the afternoon dosing groups. All animals were fed between 9:30-10:00 a.m. and were allowed two hours to eat, at which time any remaining food was removed. […] Animals were dosed daily for four weeks and blood samples were taken at the end of each week after an overnight fast for comparison with pretreatment serum total cholesterol levels.
Following this initial four week dose-ranging study, dogs from the two groups receiving 10 mg/kg/day pravastatin (a.m. and p.m. dosing groups) were randomized into two new treatment groups based on serum total cholesterol levels to initiate the combination treatment study. […] Dosing continued in this manner for an additional four weeks (Weeks 5-8) with blood and 48-hour fecal samples collected at the end of each week for serum lipid measurements and fecal bile acid determinations, respectively.

In the case of CCCCC1(CC)CS(=O)(=O)c2ccc(N(C)C)cc2[C@@H](c2cccc(OCc3ccc(C[N+]45CCN(CC4)CC5)cc3)c2)[C@H]1O.[Cl-] (stereo partly drawn) [Compound A-5], the “% change in serum total cholesterol compared to the pretreatment value of each group” value (“% change in serum total cholesterol” below) (compound A-5 0.22 mg/kg/day per os, Week 1) is reported as “(−9) %”, the “SERUM TOTAL CHOLESTEROL” value (compound A-5 0.22 mg/kg/day per os, Week 1, mean ± SEM) is reported as 140 ± 10^3 mg/dL and the “% change in serum total cholesterol” value (compound A-5 0.22 mg/kg/day per os, Week 2) is reported as “(−7) %”. For the same compound, the “SERUM TOTAL CHOLESTEROL” value (compound A-5 0.22 mg/kg/day per os, Week 2, mean ± SEM) was 143 ± 11 mg/dL, the “% change in serum total cholesterol” value (compound A-5 0.22 mg/kg/day per os, Week 3) was “(−10) %” and the “SERUM TOTAL CHOLESTEROL” value (compound A-5 0.22 mg/kg/day per os, Week 3, mean ± SEM) was 138 ± 11^3 mg/dL. For the same compound, the “decrease in serum total cholesterol concentration” value (compound A-5 0.22 mg/kg/day, one week of treatment) was 9%, the “decrease in serum total cholesterol concentration” value (compound A-5 0.22 mg/kg/day, three weeks of treatment) was 10% and the “% change in serum total cholesterol” value (compound A-5 0.66 mg/kg/day per os, Week 1) was “(−7) %”. For the same compound, the “SERUM TOTAL CHOLESTEROL” value (compound A-5 0.66 mg/kg/day per os, Week 1, mean ± SEM) was 145 ± 9 mg/dL, the “% change in serum total cholesterol” value (compound A-5 0.66 mg/kg/day per os, Week 2) was “(−4) %” and the “SERUM TOTAL CHOLESTEROL” value (compound A-5 0.66 mg/kg/day per os, Week 2, mean ± SEM) was 149 ± 8 mg/dL. The “% change in serum total cholesterol” value (compound A-5 0.66 mg/kg/day per os, Week 3) was “(−6) %”, the “SERUM TOTAL CHOLESTEROL” value (compound A-5 0.66 mg/kg/day per os, Week 3, mean ± SEM) was 146 ± 8 mg/dL and the “decrease in serum total cholesterol concentration” value (compound A-5 0.66 mg/kg/day, one week of treatment) was 7%. The “decrease in serum total cholesterol concentration” value (compound A-5 0.66 mg/kg/day, three weeks of treatment) was 6%, the “% change in serum total cholesterol” value (compound A-5 2.0 mg/kg/day per os, Week 1) was “(−12) %” and the “SERUM TOTAL CHOLESTEROL” value (compound A-5 2.0 mg/kg/day per os, Week 1, mean ± SEM) was 137 ± 10^3 mg/dL. For the same compound, the “% change in serum total cholesterol” value (compound A-5 2.0 mg/kg/day per os, Week 2) was “(−15) %”, the “SERUM TOTAL CHOLESTEROL” value (compound A-5 2.0 mg/kg/day per os, Week 2, mean ± SEM) was 133 ± 11^3 mg/dL and the “% change in serum total cholesterol” value (compound A-5 2.0 mg/kg/day per os, Week 3) was “(−13) %”. For the same compound, the “SERUM TOTAL CHOLESTEROL” value (compound A-5 2.0 mg/kg/day per os, Week 3, mean ± SEM) was 136 ± 10^3 mg/dL, the “decrease in serum total cholesterol concentration” value (compound A-5 2.0 mg/kg/day, one week of treatment) was 12% and the “decrease in serum total cholesterol concentration” value (compound A-5 2.0 mg/kg/day, three weeks of treatment) was 13%. For the same compound, the “decrease in serum total cholesterol compared to the initial value at Week 0” value (compound A-5 4 mg/kg/day for four weeks (beginning after Week 4), Week 8) was 23%, the “% change in serum total cholesterol” value (compound A-5 6.0 mg/kg/day per os, Week 1) was “(−19) %” and the “SERUM TOTAL CHOLESTEROL” value (compound A-5 6.0 mg/kg/day per os, Week 1, mean ± SEM) was 128 ± 11^3 mg/dL. The “% change in serum total cholesterol” value (compound A-5 6.0 mg/kg/day per os, Week 2) was “(−22) %”, the “SERUM TOTAL CHOLESTEROL” value (compound A-5 6.0 mg/kg/day per os, Week 2, mean ± SEM) was 124 ± 11^3 mg/dL and the “% change in serum total cholesterol” value (compound A-5 6.0 mg/kg/day per os, Week 3) was “(−24) %”. For the same compound, the “SERUM TOTAL CHOLESTEROL” value (compound A-5 6.0 mg/kg/day per os, Week 3, mean ± SEM) was 120 ± 11^3 mg/dL, the “decrease in serum total cholesterol concentration” value (compound A-5 6.0 mg/kg/day, one week of treatment) was 19% and the “decrease in serum total cholesterol concentration” value (compound A-5 6.0 mg/kg/day, three weeks of treatment) was 24%. The “% change from Week 0 in total serum cholesterol” value (compound A-5 monotherapy 4.0 mg/kg/day, dosed Weeks 5-8, Week 5) was “(−12) %”, the “TOTAL SERUM CHOLESTEROL” value (compound A-5 monotherapy 4.0 mg/kg/day, dosed Weeks 5-8, Week 5, mean ± SEM) was 123 ± 9 mg/dL and the “% change from Week 0 in total serum cholesterol” value (compound A-5 monotherapy 4.0 mg/kg/day, dosed Weeks 5-8, Week 6) was “(−18) %”. For the same compound, the “TOTAL SERUM CHOLESTEROL” value (compound A-5 monotherapy 4.0 mg/kg/day, dosed Weeks 5-8, Week 6, mean ± SEM) was 115 ± 8 [a] mg/dL, the “% change from Week 0 in total serum cholesterol” value (compound A-5 monotherapy 4.0 mg/kg/day, dosed Weeks 5-8, Week 7) was “(−18) %” and the “TOTAL SERUM CHOLESTEROL” value (compound A-5 monotherapy 4.0 mg/kg/day, dosed Weeks 5-8, Week 7, mean ± SEM) was 114 ± 6 [a] mg/dL. For the same compound, the “% change from Week 0 in total serum cholesterol” value (compound A-5 monotherapy 4.0 mg/kg/day, dosed Weeks 5-8, Week 8) was “(−23) %”, the “TOTAL SERUM CHOLESTEROL” value (compound A-5 monotherapy 4.0 mg/kg/day, dosed Weeks 5-8, Week 8, mean ± SEM) was 107 ±7 mg/dL and 107 ± 7 [a] mg/dL and the “% change from Week 0 in total serum cholesterol” value (compound A-5 monotherapy group, dosing terminated after Week 8, Week 9) was “(−5) %”. The “TOTAL SERUM CHOLESTEROL” value (compound A-5 monotherapy group, dosing terminated after Week 8, Week 9, mean ± SEM) was 132 ± 7 mg/dL, the “% change from Week 0 in total serum cholesterol” value (compound A-5 monotherapy group, dosing terminated after Week 8, Week 10) was “(−4) %” and the “TOTAL SERUM CHOLESTEROL” value (compound A-5 monotherapy group, dosing terminated after Week 8, Week 10, mean ± SEM) was 133 ± 10 mg/dL. The “% change from Week 0 in total serum cholesterol” value (compound A-5 monotherapy group, dosing terminated after Week 8, Week 11) was “(−5) %”, the “TOTAL SERUM CHOLESTEROL” value (compound A-5 monotherapy group, dosing terminated after Week 8, Week 11, mean ± SEM) was 132 ± 9 mg/dL and the “% change from Week 0 in total serum cholesterol” value (compound A-5 monotherapy group, dosing terminated after Week 8, Week 12) was “(−2) %”. The “TOTAL SERUM CHOLESTEROL” value (compound A-5 monotherapy group, dosing terminated after Week 8, Week 12, mean ± SEM) was 136 ± 9 mg/dL, the “% change from Week 0 in total serum cholesterol” value (compound A-5 monotherapy group, dosing terminated after Week 8, Week 13) was “(−14) %” and the “TOTAL SERUM CHOLESTEROL” value (compound A-5 monotherapy group, dosing terminated after Week 8, Week 13, mean ± SEM) was 137 ± 9 mg/dL.
